Source: ChEMBL document CHEMBL2413045, “Synthesis, self-aggregation and biological properties of alkylphosphocholine and alkylphosphohomocholine derivatives of cetyltrimethylammonium bromide, cetylpyridinium bromide, benzalkonium bromide (C16) and benzethonium chloride” (Eur J Med Chem, 2013)
In brackets after ≈: the same amount, converted by molar mass.

Tests used:
HUVEC = assay: Cytotoxicity against HUVEC after 72 hrs by MTT assay; assay type: ADME, cell-based; conditions: Homo sapiens
A549 [1] = assay: Cytotoxicity against human A549 cells after 72 hrs by MTT assay; assay type: functional, cell-based; conditions: A549, 72 h
Candida albicans [2] = assay: microbe, parasite or virus in culture; assay type: functional; conditions: ATCC 60193, 48 h
Description: (§1) Antimycotic activity against Candida albicans ATCC 60193 after 48 hrs by NCCLS M-27 microdilution assay

Acanthamoeba lugdunensis [3] = assay: Amoebicidal activity against Acanthamoeba lugdunensis clinical isolate AcaVNAK02 assessed as minimum trophocidal concentration after 48 hrs by trypan blue exclusion assay; assay type: functional; conditions: clinical isolate AcaVNAK02, 48 h
CCRF-CEM = assay: Cytotoxicity against human CCRF-CEM cells after 72 hrs by MTT assay; assay type: functional, cell-based
HeLa = assay: Cytotoxicity against human HeLa cells after 72 hrs by MTT assay; assay type: functional, cell-based
Acanthamoeba quina [4] = assay: Amoebicidal activity against Acanthamoeba quina clinical isolate AcaVNAK03 assessed as minimum trophocidal concentration after 48 hrs by trypan blue exclusion assay; assay type: functional; conditions: clinical isolate AcaVNAK03, 48 h
MDA-MB-231 = assay: Cytotoxicity against human MDA-MB-231 cells after 72 hrs by MTT assay; assay type: functional, cell-based; conditions: MDA-MB-231, 72 h
MCF7 [5] = assay: Cytotoxicity against human MCF7 cells after 72 hrs by MTT assay; assay type: functional, cell-based; conditions: MCF7, 72 h
Acanthamoeba quina [6] = conditions: clinical isolate AcaVNAK03
Candida albicans [7] = conditions: ATCC 60193
Description: as §1

Acanthamoeba lugdunensis [8] = conditions: clinical isolate AcaVNAK02
A549 [9] = assay: Selectivity index, ratio of IC50 for HUVEC to IC50 for human A549 cells
Candida albicans [10] = assay: Ratio of cetylpyridinium bromide MIC to compound MIC for Candida albicans ATCC 60193; assay type: functional
MCF7 [11] = assay: Selectivity index, ratio of IC50 for HUVEC to IC50 for human MCF7 cells

Molecule	IC50 (HUVEC) [µM]	IC50 (A549 [1]) [µM]	MIC (Candida albicans [2]) [µM]	MTC (Acanthamoeba lugdunensis [3]) [µM]	IC50 (CCRF-CEM) [µM]	IC50 (HeLa) [µM]	MTC (Acanthamoeba quina [4]) [µM]	IC50 (MDA-MB-231) [µM]	IC50 (MCF7 [5]) [µM]	MIC (Acanthamoeba quina [6]) [µM]	MIC (Candida albicans [7]) [µM]	MIC (Acanthamoeba lugdunensis [8]) [µM]	Ratio IC50 (A549 [9])	Ratio (Candida albicans [10])	Ratio IC50 (MCF7 [11])
CCCCCCCCCCCCCCCCOP(=O)([O-])OCCC[N+](C)(C)Cc1ccccc1	> 100	57.6	7.9 (≈ 3.93 µg/mL)	125	62.2	62.1	250	43.7	57.6	–	–	–	–	–	–
CC(C)(C)CC(C)(C)c1ccc(OCCOP(=O)([O-])OCC[N+](C)(C)Cc2ccccc2)cc1	> 100	> 100	> 100	250	> 100	> 100	500	> 100	> 100	–	–	–	–	–	–
Cetyltrimethylammonium bromide	–	–	–	–	–	–	–	–	–	15.6	22	15.6	–	–	–
CCCCCCCCCCCCCCCCOP(=O)([O-])OCC[N+](C)(C)C [MILTEFOSINE]	> 100	8.6	2.2 (≈ 0.897 µg/mL)	250	20.7	74.4	125	34.8	18.9	–	–	–	>10	–	–
CCCCCCCCCCCCCCCCOP(=O)([O-])OCCC[N+](C)(C)C	> 100	41.5	18.2 (≈ 7.67 µg/mL)	125	6.2	84.4	62.5	61.7	45.2	–	–	–	–	–	–
CC(C)(C)CC(C)(C)c1ccc(OCCOP(=O)([O-])OCCC[N+](C)(C)Cc2ccccc2)cc1	> 100	> 100	> 100	250	> 100	> 100	125	> 100	> 100	–	–	–	–	–	–
CCCCCCCCCCCCCCCCOP(=O)([O-])OCC[N+](C)(C)Cc1ccccc1	> 100	73.2	8.1 (≈ 3.92 µg/mL)	> 500	13.8	55.7	> 500	44.3	76	–	–	–	–	–	–
CCCCCCCCCCCCCCCC[N+](C)(C)Cc1ccccc1.[Br-]	7.5	0.63	4.5	15.6	0.9	2.8	15.6	3.5	1	–	–	–	>10	2	–
CCCCCCCCCCCCCCCCOP(=O)([O-])OCCC[n+]1ccccc1	> 100	61.6	2.1 (≈ 0.927 µg/mL)	250	34.6	74.7	15.6	59.9	50.4	–	–	–	–	–	–
CCCCCCCCCCCCCCCCOP(=O)([O-])OCC[n+]1ccccc1	94	9.9	4 (≈ 1.71 µg/mL)	62.5	22.9	52.1	62.5	45.8	8.1	–	–	–	–	–	>10
